According to patent EP1655296A1, “Thrombin inhibitors” (Graffinity Pharmaceuticals AG, priority 2004, dated 2006):

Target: thrombin (Homo sapiens, UniProt P00734)
Assay: Ki determinations thrombin (fluorogenic substrate Tosyl-GPR-AMC)
Assay type: biochemical
Conditions: 20 °C; Tosyl-GPR-AMC 20 µM; thrombin concentration of 100 pM; HBS pH 7.4
Method: The Ki determinations are carried out at 20 °C with the fluorogenic substrate Tosyl-GPR-AMC (Bachem, Heidelberg, Germany; λexc = 370 nm, λem = 450 nm) at a thrombin concentration of 100 pM in HBS pH 7.4. The substrate is added to a final concentration of 20 µM in a total assay volume of 100 µl. The enzymatic reaction is started by addition of substrate. The emission at 450 nm is monitored in 1 minute intervals for 10 minutes using a polarstar reader (BMG Laboratories, Offenburg, Germany). Initial velocities of the control and the inhibited reactions (vo and vi) are estimated in FU/min at different compound concentrations. The inhibition constants are calculated using the Michaelis-Menten equation for competitive inhibition.

Ki: < 1000 nM
Compound: Fc1c(NCCC2CCCCN2)ncc(Cl)c1CCNCc1n[nH]c2ccc(Cl)cc12 (stereo not shown) [example 1]
